Data reported in patent publication US5223415A, “Biosynthetic production of 7-[1',2',6',7',8',8a'(R)-hexahydro-2'(S),6'(R)-dimethyl-8'(S)-hydroxy-1' (S)-naphthyl]-3(R),5(R)-dihydroxyheptanoic acid (triol acid)” (Merck & Co., Inc., priority 1992, dated 1993).
Where a name gives a salt, the structure may show the parent alone.

Assays:
[1] = test system: purified Clonostachys compactiuscula esterase; type: biochemical; conditions: within 16 h; enzyme 4.0 or 40.0 microgram/ml, simvastatin 10 or 35 mM, pH 7.8 or 9.5, methanol 0-20% v/v (conditions listed in table 1)
Method: Clonostachys compactiuscula esterase was purified from 57 g mycelial cells which had been grown up in medium EN using the methods detailed in Examples 1 and 3. The use of a Pharmacia HR 10/10 MONO Q® column allowed the application of 85 mL of crude cell-free extract per purification run. In total 0.89 mg of purified esterase was obtained (in a volume of 10 mL) which was then concentrated to 0.175 mg protein/mL by ultrafiltration using a 10,000 molecular weight cut-off CENTRIPREP® device (AMICON®).
Other conditions which were varied were pH (7.8 and 9.5 were assessed) and methanol concentration (0, 10 and 20% [v/v, final concentration]). The reactions were buffered by the inclusion of either 100 mM TRIS (in the case of reactions carried out at pH 7.8) or 100 mM glycine […]. Greater than 90% hydrolysis of residual lovastatin acid to triol acid was obtained within 16 h under the following conditions: […]

[2] = test system: crude homogenate of Clonostachys compactiuscula; type: biochemical; conditions: equal volumes of crude homogenate (about 0.5 mg/ml protein) and lovastatin acid ammonium salt 5 g/L, 29° C., within 2 hrs
Method: Clonostachys compactiuscula ATCC 38009 was grown in 250 ml shake flasks containing 12 ml of medium EN at 29° C. for 3 days. Lovastatin ammonium salt was added to give a concentration of 2.5 g/L and fermentation was continued for 2 additional days. To prepare the crude homogenate, the culture was harvested by centrifugation at 3000 rpm for 10 minutes, after which it was washed with 50 mM of N-tris(hydroxymethyl)methyl-2-aminoethanesulfonic acid (TES) buffer, pH 7.7. The culture medium was again centrifuged and the cell mass was chilled on ice and then subjected to grinding in a mortar and pestle containing glass fragments and powdered dry ice. The contents of 1 shake flask was resuspended in 2.0 ml of 50 mM TES buffer and centrifuged at 6000 rpm for 10 minutes to remove cell debris and glass fragments. The supernatant was used as the source of crude homogenate with protein concentration of approximately 0.5 mg/ml.
In order to carry out the biotransformation, one volume of crude homogenate was combined with an equal volume of lovastatin acid ammonium salt (5 g/L), and the mixture was incubated at 29° C. Using this method, 80-90% conversion of lovastatin acid to triol acid was observed within 2 hrs.

[3] = test system: crude hydrolase (6000 rpm supernatant) of Clonostachys compactiuscula ATCC 38009; conditions: lovastatin 1.4 mM and simvastatin 18.6 mM ammonium salts solution, 50 mM Tris pH 7.8, methanol, 29 C., after 17 h
Method: The resulting homogenized, frozen powder was transferred to a suitable tube and the material remaining in the mortar washed into the same tube using a minimal volume of 50 mM Tris, pH 7.8. The mixture was then allowed to thaw and then centrifuged at 6000 rpm for 10 minutes to remove large cell debris and glass.
The 6000 rpm supernatant was used as a crude source of hydrolase and 0.8 mL was mixed with 0.2 mL methanol and 1.0 mL of a solution of simvastatin (18.6 mM and lovastatin (1.4 mM) ammonium salts in 50 MM Tris, pH 7.8.) The reaction mixture was incubated at 29 C. and sampled after 1 h, 2 h, and 17 h by removing 0.1 mL and diluting with 0.9 mL methanol. The samples were then subjected to analysis by HPLC using a Whatman C-8 column as stationary phase and a 60:40 mixture of acetonitrile: 0.5% phosphoric acid as mobile phase; under these conditions the respective retention times for simvastatin, lovastatin and triol ammonium salts are 4.4 min., 3.8 min., and 2.5 min.

[4] = test system: purified lovastatin acid hydrolase from Clonostachys compactiuscula; experiment: Km and specific activity of purified hydrolase with lovastatin ammonium salt as substrate; type: biochemical; conditions: for specific activity: saturating substrate conditions
Method: A hydrolytic enzyme which carries out the biotransformation of lovastatin acid to triol acid was purified by Fast Protein Liquid Chromatography (FPLC*) employing a MONO Q® anion exchange column to near homogeneity from homogenates of Clonostachys compactiuscula employing the procedures described below.
The supernatant from the 6,000 rpm centrifugation as in Example 2 above, but where 50 mM of tris(hydroxymethyl)aminomethane (TRIS) buffer (pH 7.8) is substituted for 50 mM TES buffer, was centrifuged at 15,000 rpm for 20 minutes and the resulting supernatant filtered through a […] filter. Batches (10 mL) of filtrate containing 0.3-0.5 mg/mL protein were then applied at a rate of 1.0-2.0 mL/minute to a Pharmacia MONO Q® (HR 5/5) anion exchange column connected to a Pharmacia Fast Protein Liquid Chromatography (FPLC) system.
(§1) After allowing binding of the anionic proteins to the column matrix, the hydrolase was specifically eluted by the application of a linear gradient of sodium chloride (0-500 mM) in 20 mM TRIS, pH 7.8. […] When the latter substrate was used, the hydrolytic reaction was monitored spectrophotometrically at 410 nm essentially as described by Lawrence, R. C. et al. in J. Gen. Microbiol. (1967) 48, 401-418.
Using the purified enzyme preparation, the biotransformation was carried out in accordance with the procedures described above in Examples 1, 2, 4 and 6, and an estimate was made of the hydrolase's Km and specific activity with lovastatin ammonium salt as substrate. […]
as §1, with “mM).” for “mM) in 20 mM TRIS, pH 7.8.”, “Microbiol. (1967) 48, 401-418.” left out

Q: What does the source list for `CC[C@H](C)C(=O)O[C@H]1C[C@@H](C)C=C2C=C[C@H](C)[C@H](CC[C@@H](O)C[C@@H](O)CC(=O)O)[C@H]21` [lovastatin acid]?
A: hydrolysis of residual lovastatin acid to triol acid [1]: Greater than 90%; conversion of lovastatin acid to triol acid [2]: 80-90%

Q: How did the “conversion of lovastatin (HPLC area percent reduction)” value [3] turn out when `CC[C@H](C)C(=O)O[C@H]1C[C@@H](C)C=C2C=C[C@H](C)[C@H](CC[C@@H](O)C[C@@H](O)CC(=O)O)[C@H]21` [lovastatin ammonium salt] was run?
A: The value was “greater than 99%”.

Q: And the Km ([4]; lovastatin ammonium salt as substrate, purified enzyme preparation)?
A: Its Km is 4.14 mM.

Q: And the specific activity ([4]; Example 3)?
A: Its specific activity is 0.04 mmol lovastatin ammonium salt hydrolyzed/mg protein per minute.

Q: And the specific activity ([4]; Example 4)?
A: Its specific activity is 0.11 mmol lovastatin ammonium salt/mg protein per hour.
